Results from patent publication US9169257B2, “Crystal forms of adefovir dipivoxil and processes for preparing the same” (Daewoong Pharmaceutical Co., Ltd., priority 2009, dated 2015).
Values belong to the compound of their own block, whether it stands above or below them.

Assays:
Assay type in all cases: physicochemical
[1] = Stability test (HPLC content and decomposition products, 5° C. and accelerated condition over 6 months)
Experimental: The novel Forms A and B of Examples 3 and 11 of the present invention, and 50 mg of the authentic adefovir dipivosil (purity: 99.5%) were precisely weighed into a 50 mL volumetric flask and dissolved in diluent. After making up to the mark, they were used as sample solution and standard solution, respectively. Analysis was carried out according to the following conditions, so that the contents of the novel Forms A and B, and the amounts of decomposition products of adefovir dipivoxil formed were calculated by the peak areas. The changes in the contents of novel crystal forms and the amounts of decomposition products were measured under 5° C. and accelerated condition over 6 months.
Instrument: Waters HPLC model 2695
Column: Allech Mixed Mode Anion exchange C8, 7 um 100 A pore size, 250 mm×4.6 mm
Mobile phase mixing condition was operated as follows: For 19 min, mobile phase A was changed from 100% to 0%, and mobile phase B was changed from 0% to 100%. After elution with mobile phase B 100% till 36 min, the elution was changed from mobile phase A 0% to 100% till 46 min.
Mobile phase A: buffer/acetonitrile (70:30, v/v)
Mobile phase B: buffer/acetonitrile (50:50, v/v)
Buffer: 9.2 g of K2HPO4 and 47.2 g of KH2PO4 were dissolved in 2 L of purified water
Diluent: 3.4 g of KH2PO4 was dissolved in 1 L of purified water and adjusted to pH 3.0
Detector wave length: 260 nm

[2] = Dissolution test of formulations; conditions: for Dissolution rate (%): formulation per Example 1 of WO00/35460, average of 3
Experimental: Using the novel Form B prepared in Example 11 of the present invention and the Form I prepared in Example 1 of WO99/04774 as raw materials, each formulation was manufactured by the technique disclosed in Example 1 of WO00/35460. Dissolution rates were compared in 0.01N HCl solution, pH 1.2 buffer solution (NaCl 20 g+37% HCl 68˜70 mL+distilled water 9 L), pH 4.0 buffer solution (sodium acetate 7.38 g+acetic acid 25 mL+distilled water 9 L), pH 6.0 buffer solution (KH2PO4 68 g+NaOH+distilled water 10 L) and pH 7 distilled water. Experiments were repeated 3 times for each case, and the average values are represented in Table 4.

[3] = Drying temperature conditions: transformation of the crystal form under vacuum drying; conditions: for Crystal form: vacuum 0.1˜1.0 Torr
Experimental: Form A prepared by Example 3 was treated with various drying temperatures and drying times under the vacuum condition of 0.1˜1.0 Torr, and the resulting trans-formation of the crystal form is represented in Table 1.

[4] = Accelerated (25° C., 60% RH), 0 month
[5] = Accelerated (25° C., 60% RH), 1 month
[6] = Accelerated (25° C., 60% RH), 3 months
[7] = Accelerated (25° C., 60% RH), 6 months
[8] = drying time 10 h, drying temperature 40° C.

Content ([1]; 5° C., 0 month): 100.48%
Total amount of decomposition product ([1]; 5° C., 0 month): 0.38%
Content ([1]; 5° C., 1 month): 100.34%
Total amount of decomposition product ([1]; 5° C., 1 month): 0.31%
Content ([1]; 5° C., 3 months): 99.18%
Total amount of decomposition product ([1]; 5° C., 3 months): 0.36%
Content ([1]; 5° C., 6 months): 99.74%
Total amount of decomposition product ([1]; 5° C., 6 months): 0.43%
Content [1, 4]: 100.48%
Total amount of decomposition product [1, 4]: 0.38%
Content [1, 5]: 98.85%
Total amount of decomposition product [1, 5]: 0.42%
Content [1, 6]: 100.25%
Total amount of decomposition product [1, 6]: 0.50%
Content [1, 7]: 99.32%
Total amount of decomposition product [1, 7]: 0.66%
Dissolution rate (%) ([2]; 0.01N HCl, 5 min): 85.25%
Dissolution rate (%) ([2]; 0.01N HCl, 10 min): 97.19%
Dissolution rate (%) ([2]; 0.01N HCl, 15 min): 99.65%
Dissolution rate (%) ([2]; 0.01N HCl, 30 min): 101.12%
Dissolution rate (%) ([2]; distilled water (pH 7), 5 min): 83.57%
Dissolution rate (%) ([2]; distilled water (pH 7), 10 min): 96.96%
Dissolution rate (%) ([2]; distilled water (pH 7), 15 min): 98.73%
Dissolution rate (%) ([2]; distilled water (pH 7), 30 min): 98.96%
Dissolution rate (%) ([2]; pH 1.2 buffer, 5 min): 93.77%
Dissolution rate (%) ([2]; pH 1.2 buffer, 10 min): 101.06%
Dissolution rate (%) ([2]; pH 1.2 buffer, 15 min): 102.03%
Dissolution rate (%) ([2]; pH 1.2 buffer, 30 min): 101.71%
Dissolution rate (%) ([2]; pH 4.0 buffer, 5 min): 87.18%
Dissolution rate (%) ([2]; pH 4.0 buffer, 10 min): 96.99%
Dissolution rate (%) ([2]; pH 4.0 buffer, 15 min): 98.21%
Dissolution rate (%) ([2]; pH 4.0 buffer, 30 min): 98.98%
Dissolution rate (%) ([2]; pH 6.0 buffer, 5 min): 88.62%
Dissolution rate (%) ([2]; pH 6.0 buffer, 10 min): 95.33%
Dissolution rate (%) ([2]; pH 6.0 buffer, 15 min): 98.01%
Dissolution rate (%) ([2]; pH 6.0 buffer, 30 min): 100.32%
Dissolution rate compared with the formulation utilizing the existing Form I ([2]; formulations, summary of Table 4): superior
Structure (SMILES): CC(C)(C)C(=O)OCOP(=O)(COCCN1C=NC2C(N)=NC=NC21)OCOC(=O)C(C)(C)C (single isomer, unassigned) [Form B, 9-[2-[phosphonomethoxy]ethyl]adenine bis-pivaloyloxymethyl ester]

Dissolution rate (%) ([2]; 0.01N HCl, 5 min): 88.11%
Dissolution rate (%) ([2]; 0.01N HCl, 10 min): 93.32%
Dissolution rate (%) ([2]; 0.01N HCl, 15 min): 95.48%
Dissolution rate (%) ([2]; 0.01N HCl, 30 min): 98.17%
Dissolution rate (%) ([2]; distilled water (pH 7), 5 min): 70.92%
Dissolution rate (%) ([2]; distilled water (pH 7), 10 min): 83.19%
Dissolution rate (%) ([2]; distilled water (pH 7), 15 min): 88.58%
Dissolution rate (%) ([2]; distilled water (pH 7), 30 min): 94.85%
Dissolution rate (%) ([2]; pH 1.2 buffer, 5 min): 95.24%
Dissolution rate (%) ([2]; pH 1.2 buffer, 10 min): 100.90%
Dissolution rate (%) ([2]; pH 1.2 buffer, 15 min): 101.38%
Dissolution rate (%) ([2]; pH 1.2 buffer, 30 min): 101.61%
Dissolution rate (%) ([2]; pH 4.0 buffer, 5 min): 83.38%
Dissolution rate (%) ([2]; pH 4.0 buffer, 10 min): 88.07%
Dissolution rate (%) ([2]; pH 4.0 buffer, 15 min): 89.76%
Dissolution rate (%) ([2]; pH 4.0 buffer, 30 min): 93.00%
Dissolution rate (%) ([2]; pH 6.0 buffer, 5 min): 74.89%
Dissolution rate (%) ([2]; pH 6.0 buffer, 10 min): 89.88%
Dissolution rate (%) ([2]; pH 6.0 buffer, 15 min): 94.58%
Dissolution rate (%) ([2]; pH 6.0 buffer, 30 min): 97.38%
Transformation of the crystal form ([3]; dried at 35 to 45° C.): not transformed to Form B
Crystal form [3, 8]: Form I
Crystal form ([3]; drying time 20 h, drying temperature 40° C.): Form I
Structure (SMILES): CC(C)(C)C(=O)OCOP(=O)(COCCN1C=NC2C(N)=NC=NC21)OCOC(=O)C(C)(C)C (single isomer, unassigned) [Form I, 9-[2-[phosphonomethoxy]ethyl]adenine bis-pivaloyloxymethyl ester, reference compound]

Content ([1]; 5° C., 0 month): 100.26%
Total amount of decomposition product ([1]; 5° C., 0 month): 0.27%
Content ([1]; 5° C., 1 month): 99.45%
Total amount of decomposition product ([1]; 5° C., 1 month): 0.25%
Content ([1]; 5° C., 3 months): 100.43%
Total amount of decomposition product ([1]; 5° C., 3 months): 0.25%
Content ([1]; 5° C., 6 months): 100.2%
Total amount of decomposition product ([1]; 5° C., 6 months): 0.32%
Content [1, 4]: 100.26%
Total amount of decomposition product [1, 4]: 0.27%
Content [1, 5]: 99.68%
Total amount of decomposition product [1, 5]: 0.38%
Content [1, 6]: 99.50%
Total amount of decomposition product [1, 6]: 0.43%
Content [1, 7]: 100.06%
Total amount of decomposition product [1, 7]: 0.60%
Transformation of the crystal form ([3]; dried at 35 to 45° C.): transformed from Form A to Form B
Crystal form ([3]; drying time 10 h, drying temperature 25° C.): Form A (2 hydrate)
Crystal form ([3]; drying time 10 h, drying temperature 35° C.): Form B
Crystal form [3, 8]: Form B
Crystal form ([3]; drying time 10 h, drying temperature 42° C.): Form B
Crystal form ([3]; drying time 10 h, drying temperature 45° C.): Form B
Crystal form ([3]; drying time 10 h, drying temperature 50° C.): Mixture of Form B +
Crystal form ([3]; drying time 48 h, drying temperature 25° C.): Form A (2 hydrate)
Transformation of the crystal form ([3]; vacuum dried at 25° C.): not transformed to other crystal forms
Structure (SMILES): CC(C)(C)C(=O)OCOP(=O)(COCCN1C=NC2C(N)=NC=NC21)OCOC(=O)C(C)(C)C (single isomer, unassigned) [Form A, 9-[2-[phosphonomethoxy]ethyl]adenine bis-pivaloyloxymethyl ester]
